Columns and labels:
S180 cell line = test: Concomitant use of BSG with chemotherapeutic drugs in S180 cell line induced MA (Example 4); format: in vivo, mice; details: for Ascites Vol.: D12 (2 d post-treatment), 7 days treatment from 4 d post-inoculation
Protocol: Materials: S180 cell line (purchased from CCTCC), female BAL/c mice (6-7 weeks old purchased from Centre of Laboratory Animal for Medical Science, Guangdong), BSG (2 mg/ml, produced in house), DDP (cisplatin, 5 mg/ml, from Jingasu Hansoh Pharma, batch no. 160603), CTX (cyclophosphamide), Sodium Chloride for Injection (2.25 g, 250 ml, 0.9%, from Zhejiang Tianrui, pharmaceutica, batch no. 116102506). Methods: 1. MA induction and propagation in mice: take logarithmic growth phase cells, adjust cell density to 5×10^6/ml, inject mice (i.p., 0.4 ml per animal). Collect MA fluid from mice 7-8 days post inoculation, adjust cell density to 2×10^7/ml and inject another 4 mice (i.p., 0.4 ml per animal). Collect MA fluid again from mice 6-7 days post inoculation, adjust cell density to 5×10^6/ml and inoculate 2×10^6 cells to 48 mice before grouping. 2. Grouping: randomly divide mice 4 d post-inoculation according to body weight into A, B, C, D, E, F groups with 8 mice per group. Treat mice with A. BSG (7.5 mg/kg), B. CTX (50 mg/kg), C. DDP (0.5 mg/kg), D. BSG (7.5 mg/kg)+CTX (50 mg/kg), E. BSG (7.5 mg/kg)+DDP (0.5 mg/kg), F. N.S control for 7 days (Grouping detail see Table 7).
3. Observations: 1) record mice behavior and skin/fur glossiness daily, measure body weights and abdominal girth every two days; 2) 2 d post-treatment (D12), obtain blood from eye venous plexus and separate serum for while blood cell count (at least 20 ul). After obtaining blood, execute mice by cervical dislocation, measure pleural fluid volume and record color of fluid; 3) calculate rate of MPE suppression (%)=(1−ave. MPE volume of treatment groups/ave. MA volume of control group)×100%.

H22 cells = test system: H22 cells
Protocol: MPE usually refers to tumors originated from the chest metastasis to the pleural space, which leads to the formation of excessive fluid containing cancerous cells and it accounts for about 50% of all pleural effusions. […] Materials: mice liver cancer cell line line (purchased from CCTCC), BAL/c mice (female, 6-7 weeks old, 18-22 g, SPF, purchased from Wei Tong Li Hua, Beijing). BSG, 2 mg/ml, produced in house. Comparator CTX (cyclophosphamide, 0.2 g, from Baxter Oncology GmbH, batch no. 6D111A). Sodium Chloride for Injection (2.25 g, 250 ml, 0.9%, from Zhejiang Tianrui, pharmaceutica, batch no. 116102506).
Methods: Thaw H22 cells, adjust density to 1×10^7 cells/ml, then inject 3 mice, 0.2 ml each. Collect excessive fluid from the injected mice on after 7 days and adjust cell density to 5×10^5/ml, inject another […] into the peritoneal muscle, 0.2 ml/mouse. Divided the mice randomly into 6 groups of 14 mice each three days post-inoculation, among the 14 mice of each group, 6 will be kept separately for survival study (see Table 4b). Treat mice continuously (grouping detail see Table 4a and 4b).
Observations: 1) record mice behavior and skin/fur glossiness daily, measure body weights every two days; 2) 5 h post-treatment on D6, obtain blood from eye venous plexus until death and separate serum for white blood cell count (at least 20 ul); after obtaining blood, execute mice by cervical dislocation, measure pleural fluid volume and obtain thymus, spleen and lung, record organ weight; 3) record survival status of the rest of mice in Groups A2 to E2, calculate average increase in life span (ILS) using formula=[(ave. survival days of treatment groups/ave. survival days of control group)−1]×100%; 4) calculate rate of MPE suppression (%)=(1−ave. MPE volume of treatment groups/ave. MPE volume of control group)×100%.

[1] = test system: mice liver cancer cell line H22; test: BSG in preventing and controlling MA in H22 mouse model (Example 2); format: in vivo; details: for number of mice with nodules at the 7th day post inoculation: 9 mice each; for No. mice survive through Day 15: 9 mice/group; for ILS (average increase in life span): vs control group
Protocol: Materials: mice liver cancer cell line H22; female mice 6-8 weeks old, 18-22 g. BSG, containing 2 mg/ml PIC, produced in-house; comparator, DDP purchased from Jiangzu Haoseng; negative control normal saline (N.S).
Methods: Thaw H22 cell line, wash before inject intraperitoneally (i.p.) into 2 female BALB/c mice, and wait 10 days for peritoneal fluid accumulation. Draw accumulated fluid on D10, adjust the cell density at 1×10^7/ml. Inject another 54 mice via i.p. route with 0.2 ml of the fluid containing total of 2×10^6 cancerous cells. Pick 18 mice and divide into 2 groups at random 24 h post-inoculation. Each group of mice receives either A. BSG (subcutaneous, s.c. 200 ug/ul) or B. DDP (intraperitoneal, i.p. 20 ug/ul) at dosage set out below as a preventive measure. Treat mice daily for 14 days. The rest of mice were divided into 4 groups at random 5 d post-inoculation, namely C. BSG group (s.c.), D. BSG group (i.p.), E. DDP group (i.p.), and F. control group (s.c., N.S). Treat mice daily for 10 days (grouping detail see table below).
MA volume of treatment groups/ave. MA volume of control group)×100%.

[2] = BSG 7.5 mg/kg i.m., CTX 50 mg/kg i.m., DDP 0.5 mg/kg i.p., alone or combined
[3] = D12, BSG 7.5 mg/kg i.m., CTX 50 mg/kg i.m., DDP 0.5 mg/kg i.p., alone or combined
[4] = survival groups, 6 mice each, i.m., BSG 7.5 mg/kg, CTX 30 mg/kg, alone or combined
[5] = preventive, from 24 h post-inoculation, daily 14 days, BSG 200 ug s.c. (Group A), DDP 20 ug i.p. (Group B)
[6] = treatment from 5 d post-inoculation, daily 10 days, i.p.: BSG 200 ug (Group D), DDP 20 ug (Group E)

## O=P1(N(CCCl)CCCl)NCCCO1 (stereo not shown) [CTX, cyclophosphamide]
S180 cell line; [2]
  Ascites Vol.: 2.84 mL
S180 cell line; [3]
  MA color recorded: 3 mice with bloody ascites, 4 faintly red and 1 milky color
S180 cell line; D12, BSG 7.5 mg/kg i.m., CTX 50 mg/kg i.m., DDP 0.5 mg/kg i.p., alone or combined, vs N.S control
  MA Suppression: 63.5%
H22 cells; BSG high dose 7.5 mg/kg, CTX 30 mg/kg, combined, i.m., FIG. 5
  body weight on D7: lower body weight
H22 cells; CTX 30 mg/kg i.m., FIG. 4
  organ weight post treatment (thymus and spleen): lower average weight of organ
H22 cells; i.m., BSG 7.5 mg/kg, CTX 30 mg/kg, alone or combined
  Ave. survival: 6.00 days
H22 cells; i.m., BSG 7.5 mg/kg, CTX 30 mg/kg, alone or combined, vs control, % only in formula b145
  ILS (average increase in life span): 2.86%
H22 cells; [4]
  No. of Mice D 3: 6
  No. of Mice D 4: 6
  No. of Mice D 5: 4
  No. of Mice D 6: 1
  No. of Mice D 7: 1
  No. of Mice D 8: 0
  No. of Mice D 9: 0

## N.N.[Cl][Pt][Cl] [DDP, cisplatin]
S180 cell line; 8 mice per group, DDP 0.5 mg/kg i.p. (Group C), BSG 7.5 mg/kg + CTX 50 mg/kg (Group D)
  number of mice not alive until D12: 4
S180 cell line; [2]
  Ascites Vol.: 5.63 mL
S180 cell line; [3]
  MA color recorded: bloody ascites with one mouse having milky color
S180 cell line; survived mice, D12, FIG. 7
  tumor burden and MA volume (body weight on D12): largest tumor burden and MA volume
[1]; cell count 2D post-treatment (D15), preventive: BSG 200 ug s.c. (Group A), DDP 20 ug i.p. (Group B)
  average cancerous cells in ascites: 3.17 10^6/ml
[1]; i.p. administration, BSG 200 ug, DDP 20 ug daily, D15
  ascites volume (on average): 1.7 mL
[1]; preventive groups, BSG 200 ug s.c. (Group A, small size nodule), DDP 20 ug i.p. (Group B, medium size nodules)
  number of mice with nodules at the 7th day post inoculation: 6
[1]; [5]
  No. mice survive through Day 15: 6
  Ave. survival: 14.4 days
  ILS (average increase in life span): 72%
[1]; treatment from 5 d, i.p.: BSG 200 ug (Group D), DDP 20 ug (Group E), medium size nodules
  number of mice with nodules at the 7th day post inoculation: 6
[1]; [6]
  No. mice survive through Day 15: 2
  Ave. survival: 12.8 days
  ILS (average increase in life span): 53%

— patent publication US11020419B2, “Use of polyinosinic-polycytidylic acid compositions in treatment of malignant effusion” (BIOSYNGEN PTE, LTD, priority 2016, dated 2021)
